Measurements from patent US20080234262A1 (Wyeth, priority 2007, published 2008).

Legend:
PI3K = PI3K (Homo sapiens, UniProt P42336); test: Fluorescence polarization assay for PI3K; format: biochemical; settings: PI3Kα; read-out: PI3Kα IC50;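 also: PI3K kinase reaction on PIP2 with ATP, 30-60 min, product sensed by GST-GRP with red probe in fluorescence polarization (mP), controls without enzyme and at zero time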
prostate line LNCap = test: In vitro cell culture growth assay (MTS), LNCap; format: cell-based, human; settings: LNCap cells, three days after drug treatment;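 also: viable cell density read by absorbance at 490 nm, growth expressed as percent of vehicle-treated cells on the same plate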
breast line MDA468 = test: In vitro cell culture growth assay (MTS), MDA468; format: cell-based, human; settings: MDA468 cells, three days after drug treatment
How it was run: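 Steps: plate cells; add inhibitors the next day; incubate 3 days; add MTS dye, which viable cells convert metabolically; measure absorbance at 490 nm; calculate percent of control growth relative to vehicle-treated cells in the same plate.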

Chain of PI3K (P42336 whole entry): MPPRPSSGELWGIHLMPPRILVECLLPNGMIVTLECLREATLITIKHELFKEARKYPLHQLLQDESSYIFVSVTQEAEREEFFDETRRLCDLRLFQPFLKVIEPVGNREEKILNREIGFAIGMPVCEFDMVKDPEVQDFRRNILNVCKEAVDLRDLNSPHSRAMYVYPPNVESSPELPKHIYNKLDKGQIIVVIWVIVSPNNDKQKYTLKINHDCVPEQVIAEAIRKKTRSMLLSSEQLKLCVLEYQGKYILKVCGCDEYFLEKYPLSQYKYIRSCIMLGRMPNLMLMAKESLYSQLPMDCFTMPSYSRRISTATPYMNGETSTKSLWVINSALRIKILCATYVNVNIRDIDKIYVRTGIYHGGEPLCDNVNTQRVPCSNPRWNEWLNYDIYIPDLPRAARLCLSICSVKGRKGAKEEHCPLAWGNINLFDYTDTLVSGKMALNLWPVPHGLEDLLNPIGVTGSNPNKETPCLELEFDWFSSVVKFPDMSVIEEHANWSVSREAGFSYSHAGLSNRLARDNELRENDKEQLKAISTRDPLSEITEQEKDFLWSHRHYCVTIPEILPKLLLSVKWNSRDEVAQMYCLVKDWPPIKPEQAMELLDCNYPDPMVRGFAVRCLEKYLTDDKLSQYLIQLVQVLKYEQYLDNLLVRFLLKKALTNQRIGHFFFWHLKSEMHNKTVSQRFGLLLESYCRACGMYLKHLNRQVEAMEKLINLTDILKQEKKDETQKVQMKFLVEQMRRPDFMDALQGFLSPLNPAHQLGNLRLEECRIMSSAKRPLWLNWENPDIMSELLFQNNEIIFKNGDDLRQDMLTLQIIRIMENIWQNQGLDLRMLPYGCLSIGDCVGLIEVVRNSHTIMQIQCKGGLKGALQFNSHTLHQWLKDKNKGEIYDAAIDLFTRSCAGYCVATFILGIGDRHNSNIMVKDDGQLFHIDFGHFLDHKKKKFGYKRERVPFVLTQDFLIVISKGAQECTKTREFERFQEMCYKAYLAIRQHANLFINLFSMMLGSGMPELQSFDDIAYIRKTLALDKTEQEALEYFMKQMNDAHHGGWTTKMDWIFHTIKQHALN
Chain of PI3K (P27986 whole entry partner): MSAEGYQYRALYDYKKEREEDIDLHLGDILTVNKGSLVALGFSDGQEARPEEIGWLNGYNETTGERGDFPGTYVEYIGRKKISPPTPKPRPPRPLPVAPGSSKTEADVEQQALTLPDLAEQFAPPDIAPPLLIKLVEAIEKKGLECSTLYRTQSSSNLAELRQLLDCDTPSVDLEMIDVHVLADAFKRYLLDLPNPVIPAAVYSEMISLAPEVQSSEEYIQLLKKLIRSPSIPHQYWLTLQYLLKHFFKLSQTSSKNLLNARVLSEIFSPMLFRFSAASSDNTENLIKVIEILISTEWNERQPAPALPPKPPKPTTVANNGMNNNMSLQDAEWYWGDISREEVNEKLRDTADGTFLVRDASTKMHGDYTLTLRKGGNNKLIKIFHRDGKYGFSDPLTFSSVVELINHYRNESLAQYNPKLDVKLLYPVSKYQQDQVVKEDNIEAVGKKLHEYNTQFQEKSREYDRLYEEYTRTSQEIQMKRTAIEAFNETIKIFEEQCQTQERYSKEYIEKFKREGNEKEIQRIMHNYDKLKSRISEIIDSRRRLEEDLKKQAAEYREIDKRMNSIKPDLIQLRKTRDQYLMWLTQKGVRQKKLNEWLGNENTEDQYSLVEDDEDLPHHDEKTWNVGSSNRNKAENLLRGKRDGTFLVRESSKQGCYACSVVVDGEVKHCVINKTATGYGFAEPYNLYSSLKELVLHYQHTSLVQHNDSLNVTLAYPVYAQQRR

IC50 (PI3K) | IC50 (prostate line LNCap; Homo sapiens, LNCaP, 72 h) | IC50 (prostate line LNCap) | SMILES | IC50 (breast line MDA468; Homo sapiens, 72 h) | IC50 (breast line MDA468)
0.09 µM | 0.33 µM | – | O=C(Nc1ccc(-c2nc(N3CCOCC3)c3cnn(C4CCN(Cc5cccnc5)CC4)c3n2)cc1)Nc1ccccn1 [Compound 588, 1-(4-{4-morpholin-4-yl-1-[1-(pyridin-3-ylmethyl)piperidin-4-yl]-1H-pyrazolo[3,4-d]pyrimidin-6-yl}phenyl)-3-pyridin-2-ylurea] | 1.8 µM | –
0.239 µM | 0.5 µM | – | c1ccc(CN2CCC(n3ncc4c(N5CCOCC5)nc(-c5cccc6[nH]ccc56)nc43)CC2)cc1 [Example 59] | 2.6 µM | –
2.13 µM | 0.6 µM | – | O=C(N1CCOCC1)N1CCC(n2ncc3c(N4CCOCC4)nc(-c4ccc5[nH]ccc5c4)nc32)CC1 [Compound 121] | 2 µM | –
12 µM | 1.8 µM | – | CC(C)OC(=O)N1CCC(n2ncc3c(N4CCOCC4)nc(-c4ccc(N)cc4)nc32)CC1 [Compound 830, isopropyl 4-[6-(4-aminophenyl)-4-morpholin-4-yl-1H-pyrazolo[3,4-d]pyrimidin-1-yl]piperidine-1-carboxylate] | 16 µM | –
0.337 µM | 1.1 µM | – | O=C(CCl)N1CCC(n2ncc3c(N4CCOCC4)nc(-c4ccc5[nH]ccc5c4)nc32)CC1 [Compound 93] | 1.2 µM | –
0.163 µM | 0.5 µM | – | O=C(NCCO)Nc1ccc(-c2nc(N3CCOCC3)c3cnn(C4CCN(Cc5cccnc5)CC4)c3n2)cc1 [Example 316, 1-(2-hydroxyethyl)-3-(4-{4-morpholin-4-yl-1-[1-(pyridin-3-ylmethyl)piperidin-4-yl]-1H-pyrazolo[3,4-d]pyrimidin-6-yl}phenyl)urea] | 0.6 µM | –
0.018 µM | 0.31 µM | – | CCn1ncc2c(N3CCOCC3)nc(-c3cccc(O)c3)nc21 [Compound 97] | 1.3 µM | –
1.6 µM | 0.98 µM | – | C=CC(=O)Nc1ccc(-c2nc(N3CCOCC3)c3cnn(C4CCN(C(=O)C(C)C)CC4)c3n2)cc1 [Compound 947, N-{4-[1-(1-isobutyrylpiperidin-4-yl)-4-morpholin-4-yl-1H-pyrazolo[3,4-d]pyrimidin-6-yl]phenyl}acrylamide] | 4.8 µM | –
6.52 µM | 5 µM | – | CC(=O)Nc1ccc(-c2nc(N3CCOCC3)c3cnn(CCN4CCCCC4)c3n2)cc1 [Compound 127] | 18 µM | –
3 µM | 7 µM | – | c1ccc(CN2CCC(n3ncc4c(N5CCOCC5)nc(-c5ccn[nH]5)nc43)CC2)cc1 [Compound 188] | 19 µM | –
3.56 µM | 1 µM | – | O=C(Nc1cc(F)c(-c2nc(N3CCOCC3)c3cnn(C4CCN(C(=O)c5cccnc5)CC4)c3n2)cc1F)NC1CC1 [Compound 468, 1-cyclopropyl-3-(2,5-difluoro-4-{4-morpholin-4-yl-1-[1-(pyridin-3-ylcarbonyl)piperidin-4-yl]-1H-pyrazolo[3,4-d]pyrimidin-6-yl}phenyl)urea] | 2.2 µM | –
– | – | > 60 µM | Nc1cccc(-c2nc(N3CCOCC3)c3cnn(-c4ccccc4)c3n2)n1 [Compound 683, 6-(4-morpholin-4-yl-1-phenyl-1H-pyrazolo[3,4-d]pyrimidin-6-yl)pyridin-2-amine] | – | > 60 µM
– | 3 µM | – | Nc1ccc(-c2nc(N3CCOCC3)c3cnn(-c4ccccc4)c3n2)cc1 [Compound 106, 4-(4-morpholin-4-yl-1-phenyl-1H-pyrazolo[3,4-d]pyrimidin-6-yl)aniline4-(4-morpholin-4-yl-1-phenyl-1H-pyrazolo[3,4-d]pyrimidin-6-yl)aniline] | 11 µM | –
– | 0.75 µM | – | Cn1ncc2c(N3CCC(n4c(=O)[nH]c5ccccc54)CC3)nc(-c3ccccc3)nc21 [Example 12] | 12 µM | –
– | 4.9 µM | – | COCCC(=O)Nc1ccc(-c2nc(N3CCOCC3)c3cnn(-c4ccccc4)c3n2)cc1 [Compound 138] | 6.5 µM | –
– | 3.4 µM | – | c1cc2cc(-c3nc(N4CCOCC4)c4cnn([C@@H]5CCCNC5)c4n3)ccc2[nH]1 [Compound 168] | 10 µM | –
– | 0.22 µM | – | Oc1cccc(-c2nc(N3CCOCC3)c3cnn(C4CCN(Cc5ccccc5)CC4)c3n2)c1 [Compound 8] | 1.9 µM | –
– | 5.1 µM | – | O=CNc1cccc(-c2nc(N3CCOCC3)c3cnn(C4CCN(Cc5ccccc5)CC4)c3n2)c1 [Example 77] | 9 µM | –
– | 1 µM | – | NCC(=O)Nc1ccc(-c2nc(N3CCOCC3)c3cnn(-c4ccccc4)c3n2)cc1 [Compound 136] | 0.4 µM | –
– | 0.2 µM | – | O=C(c1cccnc1)N1CCC(n2ncc3c(N4CCOCC4)nc(-c4cccc(O)c4)nc32)CC1 [Compound 24, 3-{4-morpholin-4-yl-1-[1-(pyridin-3-ylcarbonyl)piperidin-4-yl]-1H-pyrazolo[3,4-d]pyrimidin-6-yl}phenol] | 0.7 µM | –

IC50 (PI3K) | IC50 (prostate line LNCap; Homo sapiens, LNCaP, 72 h) | IC50 (prostate line LNCap) | SMILES | IC50 (breast line MDA468; Homo sapiens, 72 h) | IC50 (breast line MDA468)
– | 1.4 µM | – | Oc1ccc(-c2nc(N3CCOCC3)c3cnn(C4CCN(Cc5ccccc5)CC4)c3n2)cc1 [Compound 232, 4-[1-(1-benzylpiperidin-4-yl)-4-morpholin-4-yl-1H-pyrazolo[3,4-d]pyrimidin-6-yl]phenol] | 4 µM | –
– | 0.45 µM | – | CC(=O)Nc1ccc(-c2nc(N3CCOCC3)c3cnn(C4CCN(Cc5ccccc5)CC4)c3n2)cc1 [Example 80, N-{4-[1-(1-benzylpiperidin-4-yl)-4-morpholin-4-yl-1H-pyrazolo[3,4-d]pyrimidin-6-yl]phenyl}acetamide] | 2.3 µM | –
– | 4 µM | – | CNS(=O)(=O)Nc1ccc(-c2nc(N3CCOCC3)c3cnn(C4CCN(C(=O)OC(C)(C)C)CC4)c3n2)cc1 [Compound 951, tert-butyl 4-(6-{4-[(methylsulfamoyl)amino]phenyl}-4-morpholin-4-yl-1H-pyrazolo[3,4-d]pyrimidin-1-yl)piperidine-1-carboxylate] | 7.8 µM | –
– | 60 µM | – | Nc1cccc(-c2nc(N3CCOCC3)c3cnn(-c4ccccc4)c3n2)n1 [Compound 439, 6-(4-morpholin-4-yl-1-phenyl-1H-pyrazolo[3,4-d]pyrimidin-6-yl)pyridin-2-amine] | 60 µM | –
– | 2 µM | – | Nc1cccc(-c2nc(N3CCOCC3)c3cnn(C4CCN(Cc5ccccc5)CC4)c3n2)c1 [Example 60] | 5.5 µM | –
– | 1.2 µM | – | NCCC(=O)Nc1ccc(-c2nc(N3CCOCC3)c3cnn(-c4ccccc4)c3n2)cc1 [Compound 134] | 1.3 µM | –
– | 0.6 µM | – | COC(=O)Nc1ccc(-c2nc(N3CCOCC3)c3cnn(C4CCN(C(=O)c5ccc(C#N)cc5)CC4)c3n2)cc1 [Example 447, methyl (4-{1-[1-(4-cyanobenzoyl)piperidin-4-yl]-4-morpholin-4-yl-1H-pyrazolo[3,4-d]pyrimidin-6-yl}phenyl)carbamate] | 1.2 µM | –
– | 3.5 µM | – | Nc1cccc(-c2nc(N3CCOCC3)c3cnn(-c4ccccc4)c3n2)c1 [Compound 107] | 10 µM | –
– | 2 µM | – | c1ccc(-n2ncc3c(N4CCOCC4)nc(-c4ccc5[nH]ccc5c4)nc32)cc1 [Compound 110] | 5.5 µM | –
– | 20 µM | – | c1ccc(-n2ncc3c(N4CCOCC4)nc(-c4csc5ccccc45)nc32)cc1 [Compound 7] | 38 µM | –
– | 0.07 µM | – | CNC(=S)Nc1ccc(-c2nc(N3CCOCC3)c3cnn(C4CCN(Cc5cccnc5)CC4)c3n2)cc1 [Example 377, 1-methyl-3-(4-{4-morpholin-4-yl-1-[1-(pyridin-3-ylmethyl)piperidin-4-yl]-1H-pyrazolo[3,4-d]pyrimidin-6-yl}phenyl)thiourea] | 0.5 µM | –
– | 0.5 µM | – | COCC(=O)N1CCC(n2ncc3c(N4CCOCC4)nc(-c4cccc(O)c4)nc32)CC1 [Example 30] | 1.4 µM | –
– | 3 µM | – | CN1CCC(C(=O)Nc2ccc(-c3nc(N4CCOCC4)c4cnn(-c5ccccc5)c4n3)cc2)CC1 [Compound 141] | 3.8 µM | –
– | 1.4 µM | – | N#CN=C(N)Nc1ccc(-c2nc(N3CCOCC3)c3cnn(C4CCN(Cc5cccnc5)CC4)c3n2)cc1 [Example 406, 2-cyano-1-(4-{4-morpholin-4-yl-1-[1-(pyridin-3-ylmethyl)piperidin-4-yl]-1H-pyrazolo[3,4-d]pyrimidin-6-yl}phenyl)guanidine] | 1.1 µM | –
– | 4.5 µM | – | Nc1ccc(-c2nc(N3CCOCC3)c3cnn(C4CCN(Cc5ccccc5)CC4)c3n2)cc1 [Compound 79] | 10 µM | –
– | 7 µM | – | Nc1ccc(-c2nc(N3CCOCC3)c3cnn(-c4ccccc4)c3n2)nc1 [Compound 438, 6-(4-morpholin-4-yl-1-phenyl-1H-pyrazolo[3,4-d]pyrimidin-6-yl)pyridin-3-amine] | 60 µM | –
– | 3.4 µM | – | CN(C)CC(=O)Nc1ccc(-c2nc(N3CCOCC3)c3cnn(-c4ccccc4)c3n2)cc1 [Compound 135] | 1.2 µM | –
– | 0.38 µM | – | O=C(c1cccnc1)N1CCC(n2ncc3c(N4CCOCC4)nc(-c4ccc5[nH]ccc5c4)nc32)CC1 [Compound 38, 6-(1H-indol-5-yl)-4-morpholin-4-yl-1-[1-(pyridin-3-ylcarbonyl)piperidin-4-yl]-1H-pyrazolo[3,4-d]pyrimidine] | 1.1 µM | –
– | 0.07 µM | – | CNC(=S)Nc1ccc(-c2nc(N3CCOCC3)c3cnn(C4CCN(Cc5cccnc5)CC4)c3n2)cc1 [Compound 622, 1-methyl-3-(4-{4-morpholin-4-yl-1-[1-(pyridin-3-ylmethyl)piperidin-4-yl]-1H-pyrazolo[3,4-d]pyrimidin-6-yl}phenyl)thiourea] | 0.5 µM | –
– | 0.31 µM | – | COC(=O)Nc1ccc(-c2nc(N3CCOCC3)c3cnn(C4CCN(C(=O)OC)CC4)c3n2)cc1 [Compound 740, methyl 4-(6-{4-[(methoxycarbonyl)amino]phenyl}-4-morpholin-4-yl-1H-pyrazolo[3,4-d]pyrimidin-1-yl)piperidine-1-carboxylate] | 1.3 µM | –
